This passage reports IC50 results from patent US20240279237A1, “FUSED BICYCLIC HETEROARYL COMPOUNDS USEFUL AS NLRP3 INHIBITORS” (Hoffmann-La Roche Inc., priority 2021, published 2024).

pIC50: −log10 of the molar value.

T1 sequence (Q96P20 whole entry): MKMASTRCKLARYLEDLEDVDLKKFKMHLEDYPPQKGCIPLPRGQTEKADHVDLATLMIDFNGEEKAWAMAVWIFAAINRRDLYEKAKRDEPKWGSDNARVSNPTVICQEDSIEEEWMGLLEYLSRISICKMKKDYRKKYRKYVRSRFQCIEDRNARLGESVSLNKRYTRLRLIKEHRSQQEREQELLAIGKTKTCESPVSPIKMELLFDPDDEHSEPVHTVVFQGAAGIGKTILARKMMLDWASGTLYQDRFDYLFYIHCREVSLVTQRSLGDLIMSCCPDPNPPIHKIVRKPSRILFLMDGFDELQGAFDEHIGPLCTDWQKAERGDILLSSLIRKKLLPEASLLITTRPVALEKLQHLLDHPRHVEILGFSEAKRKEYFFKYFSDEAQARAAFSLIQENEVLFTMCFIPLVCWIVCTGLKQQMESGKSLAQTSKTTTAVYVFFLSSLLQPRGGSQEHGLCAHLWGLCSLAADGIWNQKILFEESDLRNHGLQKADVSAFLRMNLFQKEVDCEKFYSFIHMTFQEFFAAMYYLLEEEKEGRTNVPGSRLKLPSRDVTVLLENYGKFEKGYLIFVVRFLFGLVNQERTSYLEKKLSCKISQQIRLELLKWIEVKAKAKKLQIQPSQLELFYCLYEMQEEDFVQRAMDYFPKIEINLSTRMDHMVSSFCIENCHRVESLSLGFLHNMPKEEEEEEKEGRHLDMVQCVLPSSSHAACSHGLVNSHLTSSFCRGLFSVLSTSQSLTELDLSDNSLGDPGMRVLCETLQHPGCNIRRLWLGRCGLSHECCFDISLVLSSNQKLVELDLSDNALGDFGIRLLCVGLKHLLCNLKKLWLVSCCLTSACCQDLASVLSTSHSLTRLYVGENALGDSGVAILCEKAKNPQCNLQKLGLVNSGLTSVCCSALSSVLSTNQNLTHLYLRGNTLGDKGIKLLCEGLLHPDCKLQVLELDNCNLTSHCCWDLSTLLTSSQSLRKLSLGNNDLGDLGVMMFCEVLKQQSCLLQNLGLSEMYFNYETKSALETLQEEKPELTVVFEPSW

This experiment concerns the target T1, NLRP3 (Homo sapiens, UniProt Q96P20).
T1 construct: Seed THP-1 cells (25,000 cells/well) containing 1.0 μg/ml LPS in 40 μl of RPMI medium; host or cells: THP-1 cells
Kind of experiment: THP-1 Cells Pyroptosis Assay. Format: cell-based. To be noted: THP-1 cells with 1.0 μg/ml LPS; compound 3 hours; nigericin 5 μM 1 hr; resazurin readout. As to the method: The cells were routinely passaged and grown to confluency (˜10^6 cells/ml). On the day of the experiment, THP-1 cells were harvested and resuspended into RPMI medium (without FBS). The cells were then counted and viability (>90%) checked by Trypan blue (Sigma #T8154). […] To this diluted cell solution was added LPS (Sigma #L4524) to give a 1 μg/ml Final Assay Concentration (FAC). 40 μl of the final preparation was aliquoted into each well of a 96-well plate. The plate thus prepared was used for compound screening.
The following method step-by-step assay was followed for compound screening. • 1. […] Incubate for 3 hours at 37° C., 5% CO2 • 4. Add 5 μl nigericin (Sigma #N7143) (FAC 5 μM) to all wells • 5. Incubate for 1 hr at 37° C., 5% CO2 • 6. At the end of the incubation period, spin plates at 300×g for 3 mins and remove supernatant • 7. Then add 50 μl of resazurin (Sigma #R7017) (FAC 100 μM resazurin in RPMI medium without FBS) and incubate plates for a further 1-2 hours at 37° C. and 5% CO2 • 8.
On the technique in general: Alamar Blue is a resazurin reagent that responds to reducing activity.
By pIC50 is commonly meant the negative decadic logarithm of the IC50, by convention in mol/L. Read a low pIC50 as a large IC50. Regarding `Cc1cc(Cl)cc(O)c1-c1ccc2oc(N3CCOC4CCN(C)CC43)nc2n1` (stereo not drawn) [Example 42, 5-Chloro-3-methyl-2-[2-(6-methyl-3,4a,5,7,8,8a-hexahydro-2H-pyrido[4,3-b][1,4]oxazin-4-yl)oxazolo[4,5-b]pyridin-5-yl]phenol], the pIC50 is 8.29.

Compound `Cc1cc(C(F)(F)F)cc(O)c1-c1ccc2oc(N3CC[C@@H]4CCN(C)C[C@@H]43)nc2n1` (single isomer, unassigned) [Example 37A, 2-[2-[(3aS,7aR)-6-Methyl-3,3a,4,5,7,7a-hexahydro-2H-pyrrolo[2,3-c]pyridin-1-yl]oxazolo[4,5-b]pyridin-5-yl]-3-methyl-5-(trifluoromethyl)phenol or 2-[2-[(3aR,7aS)-6-methyl-3,3a,4,5,7,7a-hexahydro-2H-pyrrolo[2,3-c]pyridin-1-yl]oxazolo[4,5-b]pyridin-5-yl]-3-methyl-5-(trifluoromethyl)phenol] had a pIC50 of 6.67. Compared with the last compound, the pIC50 is 1.62 log units lower.

“2-[2-[[(3S or 3R)-1-Ethyl-3-piperidyl]amino]-1H-imidazo[4,5-b]pyridin-5-yl]-3-methyl-5-(trifluoromethyl)phenol [Example 18B]” showed a negative logarithm of the IC50 (pIC50) of 6.41. Against the preceding compound, the pIC50 is 0.26 log units lower.

With “2-[2-[[(3R or 3S)-1-Ethyl-3-piperidyl]amino]-1H-imidazo[4,5-b]pyridin-5-yl]-3-methyl-5-(trifluoromethyl)phenol [Example 18A]”, the negative-log IC50 (pIC50) was 8.39.

The compound `CCN1C[C@@H](O)C[C@@H](Nc2nc3nc(-c4c(C)cc(C(F)(F)F)cc4O)ccc3o2)C1` [Example 51, (3S,5R)-1-Ethyl-5-[[5-[2-hydroxy-6-methyl-4-(trifluoromethyl)phenyl]oxazolo[4,5-b]pyridin-2-yl]amino]piperidin-3-ol] showed a pIC50 of 8.74.

`CCN1CCC[C@@H](Nc2nc3nc(-c4ccc5c(c4O)CCO5)c(C)cc3o2)C1` [Example 35, 5-[2-[[(3R)-1-Ethyl-3-piperidyl]amino]-6-methyl-oxazolo[4,5-b]pyridin-5-yl]-2,3-dihydrobenzofuran-4-ol] had a pIC50 of 7.56. Against the preceding compound, the pIC50 is 1.18 log units lower.

With `CCN1CC(CNc2nc3nc(-c4c(C)cc(Cl)cc4O)ccc3o2)C1` [Example 59, 5-Chloro-2-[2-[(1-ethylazetidin-3-yl)methylamino]oxazolo[4,5-b]pyridin-5-yl]-3-methyl-phenol], the negative logarithm of the IC50 (pIC50) was 7.52. The pIC50 values of the last two compounds are within 0.2 log units of each other.

Consider `Cc1cc(C(F)(F)F)cc(O)c1-c1ccc2oc(N3CCOCC3)nc2n1` [Example 4, 3-Methyl-2-(2-morpholinooxazolo[4,5-b]pyridin-5-yl)-5-(trifluoromethyl)phenol], for which the negative-log IC50 (pIC50) was 7.53.

`CCN1CCC[C@@H](Nc2nc3nc(-c4c(C)cc(OC(F)(F)F)cc4O)ccc3o2)C1` [Example 137, 2-[2-[[(3R)-1-Ethyl-3-piperidyl]amino]oxazolo[4,5-b]pyridin-5-yl]-3-methyl-5-(trifluoromethoxy)phenol;2,2,2-trifluoroacetic acid] gave a negative logarithm of the IC50 (pIC50) of 8.32. Compared with the last compound, the pIC50 is 0.79 log units higher.

`Cc1cc(C(F)(F)F)cc(O)c1-c1ccc2[nH]c(N3CCNCC3)nc2n1` [Example 8, 3-Methyl-2-(2-piperazin-1-yl-1H-imidazo[4,5-b]pyridin-5-yl)-5-(trifluoromethyl)phenol;2,2,2-trifluoroacetic acid] showed a pIC50 of 6.52. Compared with the last compound, the pIC50 is 1.80 log units lower.

As for `CCN1CCC[C@@H](Nc2nc3nc(-c4c(C)cc(C#N)cc4O)cc(OC)c3o2)C1` [Example 111, 4-[2-[[(3R)-1-Ethyl-3-piperidyl]amino]-7-methoxy-oxazolo[4,5-b]pyridin-5-yl]-3-hydroxy-5-methyl-benzonitrile;2,2,2-trifluoroacetic acid], the pIC50 is 8.66. This pIC50 is 2.14 log units higher than that of the compound before.

`CNC1(c2nc3nc(-c4c(C)cc(C(F)(F)F)cc4O)ccc3o2)CCOCC1` [Example 135, 3-Methyl-2-[2-[4-(methylamino)tetrahydropyran-4-yl]oxazolo[4,5-b]pyridin-5-yl]-5-(trifluoromethyl)phenol;2,2,2-trifluoroacetic acid] had a negative-log IC50 (pIC50) of 6.30.

`CNC1CCCC(Nc2nc3nc(-c4c(C)cc(C(F)(F)F)cc4O)ccc3o2)C1` (mixture of isomers) [Example 7, 3-Methyl-2-[2-[[3-(methylamino)cyclohexyl]amino]oxazolo[4,5-b]pyridin-5-yl]-5-(trifluoromethyl)phenol] showed a pIC50 of 7.09.

For the compound “5-Chloro-2-[2-[[(3R)-1-ethyl-3-piperidyl]amino]oxazolo[4,5-b]pyridin-5-yl]-4-fluoro-3-methyl-phenol;2,2,2-trifluoroacetic acid salt [Example 22]”, the pIC50 is 8.27.

As for `CCN1C[C@@H](O)C[C@@H](Nc2nc3nc(-c4c(C)cc(Cl)cc4O)ccc3o2)C1` [Example 134, (3S,5R)-5-[[5-(4-Chloro-2-hydroxy-6-methyl-phenyl)oxazolo[4,5-b]pyridin-2-yl]amino]-1-ethyl-piperidin-3-ol], the negative-log IC50 (pIC50) is 8.72.

As to `Cc1cc(Cl)cc(O)c1-c1ccc2oc(NCc3c[nH]cn3)nc2n1` [Example 67, 5-Chloro-2-[2-(1H-imidazol-5-ylmethylamino)oxazolo[4,5-b]pyridin-5-yl]-3-methyl-phenol; formic acid], the pIC50 was 6.54. Against the preceding compound, the pIC50 is 2.18 log units lower.

For the compound `Cc1cc(C2CC2)cc(O)c1-c1ccc2oc(N[C@@H]3CCCN(C)C3)nc2n1` [Example 36, 5-Cyclopropyl-3-methyl-2-[2-[[(3R)-1-methyl-3-piperidyl]amino]oxazolo[4,5-b]pyridin-5-yl]phenol], the pIC50 is 7.49.

`Cc1cc(C(F)(F)F)cc(O)c1-c1ccc2oc(NC[C@H]3C[C@@](C)(O)C3)nc2n1` [Example 57, cis-2-[2-[(3-Hydroxy-3-methyl-cyclobutyl)methylamino]oxazolo[4,5-b]pyridin-5-yl]-3-methyl-5-(trifluoromethyl)phenol] gave a pIC50 of 7.30. This pIC50 and that of the compound before are within 0.2 log units of each other.

The compound `CCN1CCCC[C@@H](Nc2nc3nc(-c4c(C)cc(C(F)(F)F)cc4O)ccc3o2)C1` [Example 91, 2-[2-[[(3R)-1-Ethylazepan-3-yl]amino]oxazolo[4,5-b]pyridin-5-yl]-3-methyl-5-(trifluoromethyl)phenol] gave a pIC50 of 8.31. This pIC50 is 1.01 log units higher than that of the compound before.

In the case of `Cc1cc(C(F)(F)F)cc(O)c1-c1ccc2oc(N3CCCC(O)C3)nc2n1` (single isomer, unassigned) [Example 3A, (3R or 3S)-1-[5-[2-hydroxy-6-methyl-4-(trifluoromethyl)phenyl]oxazolo[4,5-b]pyridin-2-yl]piperidin-3-ol], the pIC50 was 7.12.

Compound `CCN1CCC[C@@H](Nc2nc3ccc(-c4c(C)cc(Cl)cc4O)nc3[nH]2)C1` [Example 136, 5-Chloro-2-[2-[[(3R)-1-ethyl-3-piperidyl]amino]-3H-imidazo[4,5-b]pyridin-5-yl]-3-methyl-phenol] had a pIC50 of 9.00.

Regarding `Cc1cc(Cl)cc(O)c1-c1ccc2oc(CC3CCCN(C)C3)nc2n1` (stereo not drawn) [Example 83, 5-Chloro-3-methyl-2-[2-[(1-methyl-3-piperidyl)methyl]oxazolo[4,5-b]pyridin-5-yl]phenol], the pIC50 was 8.29.

In turn, `CCN1C[C@H](O)C[C@@H](Nc2nc3nc(-c4c(C)cc(Cl)cc4O)ccc3o2)C1` [Example 68, (3R,5R)-5-[[5-(4-Chloro-2-hydroxy-6-methyl-phenyl)oxazolo[4,5-b]pyridin-2-yl]amino]-1-ethyl-piperidin-3-ol;formic acid] showed a pIC50 of 7.20.

As to `Cc1cc(C#N)cc(O)c1-c1ccc2oc(N3CCC4CCN(C)CC43)nc2n1` (single isomer, unassigned) [Example 27B, 4-[2-[(3aR,7aS or 3aS,7aR)-6-methyl-3,3a,4,5,7,7a-hexahydro-2H-pyrrolo[2,3-c]pyridin-1-yl]oxazolo[4,5-b]pyridin-5-yl]-3-hydroxy-5-methyl-benzonitrile], the negative-log IC50 (pIC50) was 8.57.

For `Cc1cc(C(F)(F)F)cc(O)c1-c1ccc2oc(N[C@@H]3CCCN(C4CC(O)C4)C3)nc2n1` (stereo partly drawn) [Example 61, 2-[2-[[(3R)-1-(3-hydroxycyclobutyl)-3-piperidyl]amino]oxazolo[4,5-b]pyridin-5-yl]-3-methyl-5-(trifluoromethyl)phenol], the pIC50 was 7.40.

As to `Cc1cc(Cl)cc(O)c1-c1ccc2oc(NCc3ncc[nH]3)nc2n1` [Example 76, 5-Chloro-2-[2-(1H-imidazol-2-ylmethylamino)oxazolo[4,5-b]pyridin-5-yl]-3-methyl-phenol], the pIC50 was 6.84. Compared with the last compound, the pIC50 is 0.56 log units lower.

As for `Cc1cc(C(F)(F)F)cc(O)c1-c1ccc2oc(NC3CCCC(O)C3)nc2n1` (stereo not drawn) [Example 13, 2-[2-[(3-Hydroxycyclohexyl)amino]oxazolo[4,5-b]pyridin-5-yl]-3-methyl-5-(trifluoromethyl)phenol], the pIC50 is 6.35.

In turn, `CCN1CCC[C@@H](Nc2nc3nc(-c4c(C)cc(C(F)(F)F)cc4O)cc(N4CC(O)C4)c3o2)C1` [Example 101, 1-[2-[[(3R)-1-Ethyl-3-piperidyl]amino]-5-[2-hydroxy-6-methyl-4-(trifluoromethyl)phenyl]-oxazolo[4,5-b]pyridin-7-yl]azetidin-3-ol] showed a pIC50 of 8.22.

`Cc1cc(C(F)(F)F)cc(O)c1-c1ccc2oc(NC3CCCOC3)nc2n1` (racemic) [Example 11, (rac)-3-Methyl-2-[2-(tetrahydropyran-3-ylamino)oxazolo[4,5-b]pyridin-5-yl]-5-(trifluoromethyl)phenol] had a pIC50 of 6.66.

`Cc1cc(C(F)(F)F)cc(O)c1-c1ccc2oc(N3CCCC(CO)C3)nc2n1` (stereo not drawn) [Example 77, 2-[2-[3-(Hydroxymethyl)-1-piperidyl]oxazolo[4,5-b]pyridin-5-yl]-3-methyl-5-(trifluoromethyl)phenol]: the pIC50 is 6.87.
